In general, IC90 refers to the point of the concentration-response curve where the effect stands at 90%. The term IC50 denotes the concentration at which inhibition is half-maximal.

This is an account of results in PMC3216401 (Antiviral research, 2011).

The subject of data set [1] is A/Hong Kong/2369/2009 (H1N1) oseltamivir resistant. Nature of the data set: microbe, parasite or virus in culture. It counts as cell-based. As to conditions: Influenza A virus, H1N1, MDCK, read-out: IC90, VYR Assay.
For data set [2] the test system is unchanged.
The test system is the same in data set [3]. This is another data set of the same source.
Data set [4] shares this test system. The experiment in a line: microbe, parasite or virus in culture. The settings on record: Influenza A virus, H1N1, MDCK, read-out: IC50, Visual Assay.
Data set [5] shares this test system. The experiment in a line: microbe, parasite or virus in culture. As to conditions: Influenza A virus, H1N1, MDCK, read-out: IC50, Neutral Red Uptake Assay.

Like-named read-outs stand apart in the source and are kept apart here. Some results are limits rather than exact numbers.

Turning to `Nc1ccn([C@@H]2O[C@H](CO)[C@@H](O)C2(F)F)c(=O)n1` [2’-deoxy-2’, 2’-difluorocytidine, reference compound], the IC90 in data set [1] was 0.03 µM. For the same compound, the “SI (CC50/IC50), Visual Assay” value in data set [2] is reported as over 200. Moreover, in data set [3], the “SI (CC50/IC50), Neutral Red Uptake Assay” value was over 1900. Further, the results for the IC50 in data set [4] and in data set [5] were 50 nM and 0.054 µM, respectively.
Regarding `Nc1ccn([C@@H]2O[C@H](CO)[C@@H](O)[C@H]2F)c(=O)n1` [2’-deoxy-2’-fluorocytidine, 2'-deoxy-2'-fluorocytidine], the IC90 in data set [1] is 6.3 µM. Moreover, the “SI (CC50/IC50), Visual Assay” value in data set [2] is recorded as over 48. Also, the “SI (CC50/IC50), Neutral Red Uptake Assay” value in data set [3] was over 12.8. The IC50 is 2100 nM in data set [4] and 7.8 µM in data set [5].
